Key:
A549 cells = assay: MTT assay, A549; format: cell-based; conditions: Homo sapiens, 72 h, mean ± SD (n = 3)
Method: (§1) The cytotoxicity of target compounds was assessed by MTT assay. Briefly, cells were seeded in 96-well plates at a density of 2500–3000 per well and incubated for 24 h in a CO2 incubator. Then, the cells were treated with candidate compounds at seven different concentrations for 72 h. At the end of treatment, the MTT reagent (5 mg/mL) was added to determine the cell viability. After 4 h of incubation, the resulting medium was removed, and 100 µL of DMSO was added to dissolve the formed formazan. Finally, the absorbance at 550 nm was measured by a microplate reader (Varioskan LUX, […]), with the IC50 values calculated using GraphPad Prism 5 software (GraphPad Software, La Jolla, CA, USA).

HepG2 cells = assay: MTT assay, HepG2; format: cell-based; conditions: Homo sapiens, 72 h, mean ± SD (n = 3)
Method: as §1

[1] = Cell viability of non-cancerous HUVEC; format: cell-based, human; conditions: human, HUVEC cells (non-cancerous)
Method: To investigate the selectivity of the synthesised compounds towards cancer cells, the non-cancerous HUVEC cell line was selected for testing.
as §1

hACC1 = target: T1, hACC1 (Homo sapiens, UniProt Q13085); assay: ACC inhibitory assay (ADP-Glo luminescent ADP detection); format: biochemical; conditions: for inhibition at 0.1 µM: hACC1, 0.1 μM, read-out: IRs (%) 0.1 μM; for inhibition at 0.1 µM / inhibition at 5 µM: mean of two independent experiments (Table 2); for inhibition at 5 µM: hACC1, 5 μM, read-out: IRs (%) 5 μM
T1 construct: purchased BPS Biosciences 50200
Method: The hACC1 inhibitory activity of target compounds was evaluated using the ADP-Glo^TM kinase assay according to our previous report. In brief, 4.5 µL of working solution containing recombinant ACC1 (BPS Biosciences, 50200) and 0.5 µL of diluted compound solution were added to a 384-well Optiplate plate (Perkin Elmer, 6007290, PerkinElmer, Waltham, MA, USA), and incubated at room temperature for 15 min. Then, 5 µL of substrate mixture was added to the 384-well plate to start the reaction. After incubating for 60 min at room temperature, 10 µL of ADP-Glo reagents were added to the 384-well plate, and incubated for another 40 min to deplete the remaining ATP. Finally, 20 µL of kinase detection reagents were added to the plate and incubated for 40 min to convert ADP to ATP. The luminescent signal of ATP was determined using an Envision multifunction reader (Perkin Elmer, 2104–0010, PerkinElmer, Waltham, MA, USA). The IC50 values were calculated using GraphPad Prism 5 software (GraphPad Software, La Jolla, CA, USA).

MDA-MB-231 cells = assay: MTT assay, MDA-MB-231; format: cell-based; conditions: Homo sapiens, 72 h, mean ± SD (n = 3)
Method: as §1

COc1ccc(Oc2ccc(-c3cc(C(C)NC(C)=O)on3)cc2)cc1 (centres unmarked) [Compound 6c, N-(1-(3-(4-(4-Methoxyphenoxy)phenyl)isoxazol-5-yl)ethyl)acetamide]
IC50 (A549 cells): > 10 µM | IC50 (HepG2 cells): > 10 µM | viability at 72 h, 10 µM [1]: 82.4 ± 4.85% | inhibition at 0.1 µM (hACC1): 9.89% | inhibition at 5 µM (hACC1): 37.3% | IC50 (MDA-MB-231 cells): > 10 µM | melting point: 127.5 to 128.5 °C

CC(=O)NC(C)c1cc(-c2ccc(Oc3ccccc3)cc2)no1 (centres unmarked) [Compound 6h, N-(1-(3-(4-Phenoxyphenyl)isoxazol-5-yl)ethyl)acetamide]
IC50 (A549 cells): > 10 µM | IC50 (HepG2 cells): > 10 µM | viability at 72 h, 10 µM [1]: 91.5 ± 2.58% | inhibition at 0.1 µM (hACC1): 8.78% | inhibition at 5 µM (hACC1): 36.4% | IC50 (MDA-MB-231 cells): > 10 µM | melting point: 118.5 to 119.5 °C

CCOc1ccc(Oc2ccc(-c3cc(C(C)NC(C)=O)on3)cc2)cc1 (centres unmarked) [Compound 6d, N-(1-(3-(4-(4-Ethoxyphenoxy)phenyl)isoxazol-5-yl)ethyl)acetamide]
IC50 (A549 cells): > 10 µM | IC50 (HepG2 cells): > 10 µM | viability at 72 h, 10 µM [1]: 89.1 ± 6.09% | inhibition at 0.1 µM (hACC1): 12.7% | inhibition at 5 µM (hACC1): 45.5% | IC50 (MDA-MB-231 cells): > 10 µM | melting point: 106.5 to 107.5 °C

CCOC(=O)NC(C)c1cc(-c2ccc(Oc3ccccc3)cc2)no1 (centres unmarked) [Compound 6m, Ethyl (1-(3-(4-phenoxyphenyl)isoxazol-5-yl)ethyl)carbamate]
IC50 (A549 cells): > 10 µM | IC50 (HepG2 cells): > 10 µM | viability at 72 h, 10 µM [1]: 79.1 ± 4.76% | inhibition at 0.1 µM (hACC1): 3.57% | inhibition at 5 µM (hACC1): 16.8% | ACC inhibitory activity (in words) (hACC1; screening at 5 µM and 0.1 µM): hardly observed | IC50 (MDA-MB-231 cells): > 10 µM | melting point: 106.5 to 107.5 °C

CC(=O)NC(C)c1cc(-c2ccc(Oc3ccc(O)cc3)cc2)no1 (centres unmarked) [Compound 6b, N-(1-(3-(4-(4-Hydroxyphenoxy)phenyl)isoxazol-5-yl)ethyl)acetamide]
IC50 (A549 cells): > 10 µM | IC50 (HepG2 cells): > 10 µM | viability at 72 h, 10 µM [1]: 88.1 ± 3.83% | inhibition at 0.1 µM (hACC1): 8.76% | inhibition at 5 µM (hACC1): 26.8% | IC50 (MDA-MB-231 cells): > 10 µM | melting point: 103 to 105 °C

O=C(c1c2ccccc2cc2ccccc12)N1CCC(N2CCC[C@@H](C(=O)N3CCOCC3)C2)CC1 [CP-640186, reference compound]
hACC1 IRs (%) (hACC1; at 5 μM, HTVS candidates (Table 1)): 86.83% | inhibition at 0.1 µM (hACC1): 48.9% | inhibition at 5 µM (hACC1): 87.8% | IC50 (hACC1; hACC1, mean ± SD): 0.109 ± 0.0062 µM

CC(=O)NC(C)c1cc(-c2ccc(Oc3ccc(OC(C)C)cc3)cc2)no1 (centres unmarked) [Compound 6f, N-(1-(3-(4-(4-Isopropoxyphenoxy)phenyl)isoxazol-5-yl)ethyl)acetamide]
IC50 (A549 cells): > 10 µM | IC50 (HepG2 cells): > 10 µM | viability at 72 h, 10 µM [1]: 35 ± 1.66% | inhibition at 0.1 µM (hACC1): 16.7% | inhibition at 5 µM (hACC1): 52.8% | IC50 (MDA-MB-231 cells): 6.77 ± 0.74 µM | melting point: 124 to 126 °C

CCNC(=O)NC(C)c1cc(-c2ccc(Oc3ccccc3)cc2)no1 (centres unmarked) [Compound 6n, 1-Ethyl-3-(1-(3-(4-phenoxyphenyl)isoxazol-5-yl)ethyl)urea]
IC50 (A549 cells): 5.78 ± 0.86 µM | IC50 (HepG2 cells): 9.04 ± 1.43 µM | viability at 72 h, 10 µM [1]: 83.2 ± 2.33% | inhibition at 0.1 µM (hACC1): 13.4% | inhibition at 5 µM (hACC1): 44.7% | IC50 (MDA-MB-231 cells): 8.63 ± 1.14 µM | melting point: 158.5 to 159.5 °C

CC(C)NC(=O)NC(C)c1cc(-c2ccc(Oc3ccccc3)cc2)no1 (centres unmarked) [Compound 6o, 1-Isopropyl-3-(1-(3-(4-phenoxyphenyl)isoxazol-5-yl)ethyl)urea]
IC50 (A549 cells): 3.12 ± 0.19 µM | IC50 (HepG2 cells): 2.31 ± 0.44 µM | viability at 72 h, 10 µM [1]: 77.7 ± 5.67% | inhibition at 0.1 µM (hACC1): 17.9% | inhibition at 5 µM (hACC1): 49.8% | IC50 (MDA-MB-231 cells): 1.9 ± 0.52 µM | melting point: 197.5 to 198.5 °C

COc1cccc2c1C(=O)c1c(O)c3c(c(O)c1C2=O)C[C@@](O)(C(=O)CO)C[C@@H]3O[C@H]1C[C@H](N)[C@H](O)[C@H](C)O1 [DOX, doxorubicin, reference compound]
IC50 (A549 cells): 0.52 ± 0.07 µM | IC50 (HepG2 cells): 0.67 ± 0.13 µM | viability at 72 h, 10 µM [1]: 18.9 ± 4.02% | IC50 (MDA-MB-231 cells): 0.42 ± 0.09 µM

Reference: paper PMC8205039, “Synthesis and biological evaluation of 4-phenoxy-phenyl isoxazoles as novel acetyl-CoA carboxylase inhibitors” (Journal of Enzyme Inhibition and Medicinal Chemistry, 2021)
